Earlier results on 1 substance are cited in patent publication US4127541A, “Novel decapeptides, intermediates therefor, and compositions and methods employing said decapeptides” (priority 1977, dated 1978).

For data set [1] the following is noted: injected directly into the brain of the rat.
Data set [2] concerns brain opiate receptor sites.

On to “H-Tyr-Gly-Gly-Phe-Met-OH [methionine enkephalin]”, for which, in data set [1], the analgesic activity entry is given as “weak analgesic agent of short duration”. Also, the “binding to partially purified brain opiate receptor sites” value in data set [2] is given as “binds stereo-specifically”.
